This passage reports EC50 and minimal effective concentration results from patent US20100331297A1, “MODULATION OF PROTEIN TRAFFICKING” (FOLDRX PHARMACEUTICALS, INC., priority 2007, published 2010).

Structures are written as SMILES. Where only a bound is given, the exact number is not on record here.

T1 sequence (P13569 with tags, fused parts or gaps DEL508-508): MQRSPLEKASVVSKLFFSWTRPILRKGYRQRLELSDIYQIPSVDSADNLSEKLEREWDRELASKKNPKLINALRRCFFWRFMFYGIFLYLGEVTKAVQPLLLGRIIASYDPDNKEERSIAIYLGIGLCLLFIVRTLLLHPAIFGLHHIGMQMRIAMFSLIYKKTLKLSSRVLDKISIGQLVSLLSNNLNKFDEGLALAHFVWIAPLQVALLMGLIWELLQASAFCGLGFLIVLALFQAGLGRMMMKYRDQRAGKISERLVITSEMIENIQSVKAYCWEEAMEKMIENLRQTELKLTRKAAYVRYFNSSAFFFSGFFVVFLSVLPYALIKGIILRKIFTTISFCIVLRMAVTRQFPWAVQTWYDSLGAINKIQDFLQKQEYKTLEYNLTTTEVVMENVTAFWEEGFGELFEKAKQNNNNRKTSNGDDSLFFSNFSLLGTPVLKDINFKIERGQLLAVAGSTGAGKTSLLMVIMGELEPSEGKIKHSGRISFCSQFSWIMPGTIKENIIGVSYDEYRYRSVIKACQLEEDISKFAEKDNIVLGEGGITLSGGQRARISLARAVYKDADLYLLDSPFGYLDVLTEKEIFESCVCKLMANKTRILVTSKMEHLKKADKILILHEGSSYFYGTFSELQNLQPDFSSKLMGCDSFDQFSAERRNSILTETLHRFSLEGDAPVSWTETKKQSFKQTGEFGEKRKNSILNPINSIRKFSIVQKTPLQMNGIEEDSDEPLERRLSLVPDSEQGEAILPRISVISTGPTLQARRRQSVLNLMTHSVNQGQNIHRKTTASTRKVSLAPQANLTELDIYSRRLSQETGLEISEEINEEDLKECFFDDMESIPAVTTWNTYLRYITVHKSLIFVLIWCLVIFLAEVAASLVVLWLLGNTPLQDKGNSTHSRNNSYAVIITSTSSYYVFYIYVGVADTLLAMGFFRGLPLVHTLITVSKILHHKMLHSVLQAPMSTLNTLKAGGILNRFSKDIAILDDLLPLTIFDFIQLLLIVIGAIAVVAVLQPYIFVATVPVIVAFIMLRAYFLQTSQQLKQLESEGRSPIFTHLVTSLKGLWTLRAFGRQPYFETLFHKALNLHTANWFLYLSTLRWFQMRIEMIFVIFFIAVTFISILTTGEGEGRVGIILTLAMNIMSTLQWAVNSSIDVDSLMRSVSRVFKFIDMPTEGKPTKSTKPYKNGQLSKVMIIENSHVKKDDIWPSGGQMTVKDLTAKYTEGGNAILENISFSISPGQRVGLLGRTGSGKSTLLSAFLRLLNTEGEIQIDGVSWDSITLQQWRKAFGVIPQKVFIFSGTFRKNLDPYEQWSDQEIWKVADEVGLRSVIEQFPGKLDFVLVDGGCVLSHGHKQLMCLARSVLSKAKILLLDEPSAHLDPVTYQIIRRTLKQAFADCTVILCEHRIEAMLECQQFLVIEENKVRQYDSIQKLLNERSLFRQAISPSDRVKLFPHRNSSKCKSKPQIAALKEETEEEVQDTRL

In the first assay the target is T1, ΔF508 CFTR (Homo sapiens, UniProt P13569, DEL508-508). As to the kind of experiment: Potentiator activity, YFP halide (iodide) quenching assay in FRT cells expressing ΔF508 CFTR, 27° C. pre-incubation. The arrangement: expressed in transfected cells; host or cells: Fischer rat thyroid (FRT) cells. The note with it: FRT cells ΔF508 CFTR/YFP, 24 hours at 27° C., compound with forskolin 30 min. The assay is classed as cell-based. An outline of the steps:
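FRT cells stably co-expressing ΔF508 CFTR and halide-sensitive YFP, grown 24 h at 37° C. then 24 h at 27° C. to raise surface CFTR. Compounds in PBS with forskolin, 30 min at 37° C.; iodide injected and YFP quenching (ex 485/em 530 nm) followed. EC50 from normalized endpoint fluorescence.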
Regarding `CC(C)(C1CC1)n1cc(-c2ccc(Cl)cc2)c2c(N)ncnc21` [compound 351], the EC50 is below 2 µM.
On the same count and under the same terms, to `CC(C)C(=O)Nc1ncnc2c1c(-c1ccc(Cl)cc1)cn2C(C)C` [compound 352] belongs below 2 µM; to `CCn1nc([S+]([O-])c2ccccn2)c2c(N)ncnc21` (stereo not drawn) [compound 353], 5 to 10 µM.
Same read-out and setting: to `Nc1ncnc2c1c(-c1ccc(Cl)cc1)nn2C1CNC1` [compound 411] belongs above 15 µM.
On the same count and under the same terms, to `Nc1ncnc2c1c(-c1ccc(Cl)cc1)nn2C1CCNCC1` [compound 412] belongs above 15 µM; to `Nc1ncnc2c1c(Cc1cccc3ccccc13)nn2C1CNC1` [compound 413], above 15 µM.

A further assay deals with ypt1^ts cells. Nature of the assay: Rescue of growth of ypt1^ts mutant yeast (OD600). The assay is classed as cell-based. The note with it: Saccharomyces cerevisiae, read-out: Ypt1-ts MRC (Minimum Rescue Concentration), ypt1^ts cells, 35° C. and 37° C., OD600; multiple results separated by a comma. The text has this:
The activity of the compounds as modulators of protein trafficking may be measured in the assays described herein that evaluate the ability of a compound to rescue an impairment in protein trafficking. For example, the yeast mutant cell line ypt1^ts can be used to identify compounds that rescue cells from the lethal phenotype of a mutant YPT1 allele (see, e.g., Examples and Schmitt et al. (1988) Cell 53:635-47). The activity may be measured, for example, in a whole yeast cell assay using 384-well screening protocol and an optical density measurement.
The yeast mutant cell line ypt1^ts suppresses, in a temperature dependent fashion, the dominant-lethal phenotype of a mutant YPT1 allele (Schmitt et al. (1988) Cell 53:635-47). The yeast mutant cell line ypt1^ts contains an allele of YPT1 that has two point mutations: one that changes an asparagine at position 121 to a isoleucine (N121I) and another that changes an alanine at position 161 to a valine (A161V). The N121I mutation causes dominant lethality by itself, but lethality is suppressed by the second mutation, resulting in a recessive loss of function phenotype at the restrictive temperatures. ypt1^ts cells grow normally at temperatures up to 25° C., but are growth arrested at 37° C. (Id.).
Compounds were screened to assess their ability to restore growth of ypt1^ts cells. The effect of the compounds was measured on ypt1^ts cells cultured at room temperature (permissive temperature), 37° C. (non-permissive temperature), and 35° C. (semi-permissive temperature).
To determine if the test compounds could rescue the ypt1^ts mutant phenotype, ypt1^ts cells were grown overnight in synthetic complete (SC) media supplemented with 2% glucose at room temperature. Log phase cells were diluted into SC 2% glucose media to an OD600 of 0.003. 100 μL of this culture was then aliquoted into each well of 96-well flat bottom microtiter plates. 1 μL of the test compounds dissolved in DMSO (at a concentration range from 5 mM-0.005 mM) or of DMSO alone was added to each well (50 μM-0.05 μM final concentration in 1% DMSO). Plates were mixed by vortexing and incubated at 35° C. and 37° C. Compound rescue of the ypt1^ts temperature sensitive defect was assessed by measuring the OD600 (optical density at 600 nm; cell growth) of the cultures. Plates incubated at 35° C. were measured at 24 and 40 hours incubation time while plates grown at 37° C. were measured after 40 hours of incubation.
Assays monitoring the rescue of ypt1^ts mutants were performed using a vehicle, a positive control (calcium), and the compounds identified in Table II. Results in Table II corresponding to an MRC (Minimum Rescue Concentration) for ypt1^ts of greater than or equal to 50 micromolar are labeled +; of an MRC for ypt1^ts of 10-50 micromolar are labeled ++; and of an MRC for ypt1^ts of less than 10 micromolar are labeled +++. Multiple results for a particular compound are separated by a comma.
As for `CC(C)(C)n1nc(-c2ccccc2Cl)c2c(N)ncnc21` [compound 7], the minimal effective concentration is above 50 µM.
On the same count and under the same terms, to `CC(C)(C)n1nc(-c2ccc(F)cc2)c2c(N)ncnc21` [compound 9, 1-tert-Butyl-3-(4-fluoro-phenyl)-1H-pyrazolo[3,4-d]pyrimidin-4-ylamine] belongs above 50 µM.
Still for that read-out and setting: the same measure for `CC(C)(C)n1ncc2c(N)ncnc21` [compound 12, 1-tert-butyl-1H-pyrazolo[3,4-d]pyrimidin-4-ylamine]: above 50 µM; for `COc1ccc(-c2nn(C(C)(C)C)c3ncnc(N)c23)cc1` [compound 13]: above 50 µM; for `CC(C)(C)n1nc(-c2ccc(-c3ccccc3)cc2)c2c(N)ncnc21` [compound 14]: above 50 µM.
Turning to `CC(C)(C)n1nc(-c2cccs2)c2c(N)ncnc21` [compound 15], the minimal effective concentration was above 50 µM.
Still for that read-out and setting: to `CC(C)c1ccc(-c2nn(C(C)(C)C)c3ncnc(N)c23)cc1` [compound 17] belongs above 50 µM; to `CC(C)(C)c1ccc(-c2nn(C(C)(C)C)c3ncnc(N)c23)cc1` [compound 18], above 50 µM.
Still for that read-out and setting: the same measure for `CC(C)(C)n1nc(Cc2ccc(Cl)cc2)c2c(N)ncnc21` [compound 19]: below 10 µM; for `CC(C)(C)n1nc(Cc2ccccc2Cl)c2c(N)ncnc21` [compound 20]: 10 to 50 µM; for `CC(C)(C)n1nc(Cc2ccc(Cl)c(Cl)c2)c2c(N)ncnc21` [compound 21]: above 50 µM.
For the compound `Cc1ccc(Cc2nn(C(C)(C)C)c3ncnc(N)c23)cc1` [compound 22], the minimal effective concentration was in the range of 10 to 50 µM.
Still for that read-out and setting: to `CC(C)(C)n1nc(Cc2ccc3c(c2)OCO3)c2c(N)ncnc21` [compound 23] belongs 10 to 50 µM; to `Nc1ncnc2c1c(-c1ccc(Cl)cc1)nn2Cc1ccccc1` [compound 28], 10 to 50 µM; to `CC(C)(C)n1nc(-c2ccc(C#N)cc2)c2c(N)ncnc21` [compound 35], above 50 µM.
Turning to `CC(C)(C)n1nc(-c2ccc(Cl)c(Cl)c2)c2c(N)ncnc21` [compound 36], the minimal effective concentration is above 50 µM.
Same read-out and setting: the same measure for `CC(C)(C)n1nc(-c2ccsc2)c2c(N)ncnc21` [compound 37]: above 50 µM; for `CC(C)(C)n1nc(-c2cc3ccccc3o2)c2c(N)ncnc21` [compound 42]: above 50 µM.
The same measure, in the same setting: to `Cc1ccc(-c2nn(C(C)(C)C)c3ncc(C(=O)O)c(N)c23)cc1` [compound 45, 4-Amino-1-tert-butyl-3-p-tolyl-1H-pyrazolo[3,4-b]pyridine-5-carboxylic acid] belongs above 50 µM; to `CC(C)(C)n1nc(CCc2ccccc2)c2c(N)ncnc21` [compound 48], above 50 µM.
For the compound `CC(c1ccccc1)c1nn(C(C)(C)C)c2ncnc(N)c12` (stereo not drawn) [compound 49], the minimal effective concentration fell in the range of 10 to 50 µM.
As to `CC(C)(C)n1nc(Cc2cccc(F)c2)c2c(N)ncnc21` [compound 50], the minimal effective concentration lay within 10 to 50 µM.
Still for that read-out and setting: the same measure for `CC(C)(C)n1nc(Cc2ccc(F)cc2)c2c(N)ncnc21` [compound 51]: above 50 µM; for `Cc1cccc(Cc2nn(C(C)(C)C)c3ncnc(N)c23)c1` [compound 52]: 10 to 50 µM.
On the same count and under the same terms, to `CCn1nc(-c2ccc(Cl)cc2)c2c(N(C(C)=O)C(C)=O)ncnc21` [compound 54] belongs above 50 µM; to `COc1cccc(Cc2nn(C(C)(C)C)c3ncnc(N)c23)c1` [compound 56], 10 to 50 µM; to `Cc1nc(N)c2c(-c3ccc(Cl)cc3)nn(C(C)(C)C)c2n1` [compound 57], 10 to 50 µM.
Turning to `CC(C)(C)n1nc(Cc2cccc(Br)c2)c2c(N)ncnc21` [compound 58], the minimal effective concentration was below 10 µM.
Still for that read-out and setting: to `CC(C)(C)n1nc(Cc2cccc(C#N)c2)c2c(N)ncnc21` [compound 59] belongs above 50 µM; to `CC(C)(C)n1nc(Cc2cccc(-c3ccccc3)c2)c2c(N)ncnc21` [compound 60], above 50 µM.
On to `CCc1nc(N)c2c(-c3ccc(Cl)cc3)nn(C(C)(C)C)c2n1` [compound 61], for which the minimal effective concentration was above 50 µM.
The same measure, in the same setting: the same measure for `CC(C)(C)n1nc(-c2ccc(Cl)cc2)c2c(N)nc(C3CC3)nc21` [compound 62]: above 50 µM; for `CC(C)(C)n1nc(-c2ccc(Cl)cc2)c2c(N)nc(CC3CC3)nc21` [compound 63]: above 50 µM; for `C#Cc1cccc(Cc2nn(C(C)(C)C)c3ncnc(N)c23)c1` [compound 64]: 10 to 50 µM.
Still for that read-out and setting: the same measure for `Cc1ccc(Cc2nn(C(C)(C)C)c3ncnc(N)c23)cc1C` [compound 65]: 10 to 50 µM.
Still for that read-out and setting: the same measure for `CC(C)(C)n1nc(Cc2cccc3c2OCC3)c2c(N)ncnc21` [compound 66]: 10 to 50 µM.
Regarding `CC(C)(C)n1nc(Cc2cccc3ccoc23)c2c(N)ncnc21` [compound 68], the minimal effective concentration fell in the range of 10 to 50 µM.
Still for that read-out and setting: to `Cc1ccc(-c2nn(C(C)(C)C)c3nccc(N)c23)cc1` [compound 69, 1-tert-Butyl-3-p-tolyl-1H-pyrazolo[3,4-b]pyridin-4-ylamine] belongs above 50 µM.
Same read-out and setting: the same measure for `Nc1ncnc2[nH]nc(Cc3cccc4ccccc34)c12` [compound 70]: above 50 µM; for `CCn1nc(Cc2cccc3ccccc23)c2c(N)ncnc21` [compound 71]: below 10 µM; for `Nc1ncnc2c1c(Cc1cccc3ccccc13)nn2CC1CC1` [compound 72]: below 10 µM.
On the same count and under the same terms, to `Nc1ncnc2c1c(Cc1cccc3ccccc13)nn2C1CC1` [compound 73] belongs below 10 µM.
For `CC(C)Cn1nc(Cc2cccc3ccccc23)c2c(N)ncnc21` [compound 75], the minimal effective concentration was below 10 µM.
The same measure, in the same setting: the same measure for `C=CCn1nc(Cc2cccc3ccccc23)c2c(N)ncnc21` [compound 76]: 10 to 50 µM.
The same measure, in the same setting: to `CC(C)n1nc(Cc2cccc3ccccc23)c2c(N)ncnc21` [compound 78] belongs below 10 µM.

The next assay has as its target T1, ΔF508 CFTR. As to the kind of experiment: Corrector activity, YFP halide (iodide) quenching assay in FRT cells expressing ΔF508 CFTR. The assay is classed as cell-based. The arrangement: expressed in transfected cells; host or cells: Fischer rat thyroid (FRT) cells. As to conditions: FRT cells ΔF508 CFTR/YFP, 24 hours with compound at 37° C., forskolin and genistein; read-out: Corrector EC50. The method in brief: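 FRT cells co-expressing ΔF508 CFTR and halide-sensitive YFP were incubated 24 h at 37° C with compounds, then stimulated 30 min at 37° C in PBS with forskolin and genistein. Endpoint fluorescence after iodide injection was normalized to initial reading; EC50 from 4-parameter fit with bottom constrained to DMSO control.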
For the compound `CC(C)(C1CC1)n1cc(-c2ccc(Cl)cc2)c2c(N)ncnc21` [compound 351], the EC50 lay within 2 to 5 µM.
On the same count and under the same terms, the same measure for `CC(C)C(=O)Nc1ncnc2c1c(-c1ccc(Cl)cc1)cn2C(C)C` [compound 352]: below 2 µM; for `CCn1nc([S+]([O-])c2ccccn2)c2c(N)ncnc21` (stereo not drawn) [compound 353]: above 15 µM; for `Nc1ncnc2c1c(-c1ccc(Cl)cc1)nn2C1CNC1` [compound 411]: above 15 µM.
Turning to `Nc1ncnc2c1c(-c1ccc(Cl)cc1)nn2C1CCNCC1` [compound 412], the EC50 is above 15 µM.
For `Nc1ncnc2c1c(Cc1cccc3ccccc13)nn2C1CNC1` [compound 413], the EC50 is above 15 µM.

What is called EC50 is the midpoint of the concentration-response curve.
